{
  "source": "patent US9096641B2",
  "about": "“Imidazolyl progesterone antagonists” (Evestra, Inc., priority 2013, dated 2015)",
  "key": {"glucocorticoid receptor": {"target": "T1, glucocorticoid receptor (Homo sapiens, UniProt P04150)", "T1 construct": "host or cells: HEK 293T", "T1 sequence (P04150 524-758 limits assumed)": "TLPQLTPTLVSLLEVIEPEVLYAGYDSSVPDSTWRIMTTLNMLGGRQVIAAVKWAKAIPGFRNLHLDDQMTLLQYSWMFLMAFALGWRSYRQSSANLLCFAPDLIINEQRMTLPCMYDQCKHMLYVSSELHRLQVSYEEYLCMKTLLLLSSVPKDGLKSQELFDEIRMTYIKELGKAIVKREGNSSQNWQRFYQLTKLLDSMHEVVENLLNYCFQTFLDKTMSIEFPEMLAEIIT", "assay": "Glucocorticoid Antagonist Screen (SelectScreen cell-based nuclear receptor profiling, GeneBLAzer beta-lactamase reporter)", "conditions": "relative to RU486, which is 100%; glucocorticoid receptor-LBD-UAS-bla HEK 293T cells; activated by control agonist Dexamethasone", "description": "(§1) Determination of the agonist/antagonist nature of the test compounds was carried out using Invitrogen's SelectScreen™ Cell-based nuclear receptor profiling service which uses the GeneBLAzer® Beta-lactamase reporter technology. Basically this assay uses a Beta-lactamase cDNA under transcriptional control of an Upstream Activator Sequence (UAS). The UAS is activated by the GAL4 transcription factor DNA binding domain (DBD), which is expressed as a fusion protein with the target receptor ligand binding domain (LBD). Upon ligand binding, the GAL4(DBD)-NR(LDB) binds to the UAS, which controls transcription of Beta-lactamase. Beta-lactamase cleaves a special engineered fluorescent substrate which results in a change in the measured fluorescence wavelength.\n(§2) The progesterone receptor-LBD-UAS-bla HEK 293T cells are thawed and prepared as described above for the Agonist screen. 4 μL of a 10× serial dilution of control antagonist RU486 (starting concentration, 100 nM) or test compounds are added to appropriate wells of a TC-Treated assay plate. 32 μL of cell suspension is added to the wells which is then pre-incubated at 37° C./5% CO2 in a humidified incubator with test compounds and control antagonist titration for 30 min. 4 μL of a 10× control agonist (see above) at the predetermined EC80 concentration is added to wells containing the control antagonist or test compounds. The plate is incubated for 16-24 h at 37° C./5% CO2 in a humidified incubator. 8 μL of 1 μM Substrate Loading Solution is added to each well and the plate is incubated for 2 h at room temperature. The plate is then read on a fluorescence plate reader (Tecan Safire).\nThe generalized protocol for the Glucocorticoid Antagonist Screen activated by control Agonist Dexamethasone was carried out as described for the Progesterone Antagonist Screen with the exception that glucocorticoid receptor-LBD-UAS-bla HEK 293T cells were used. The control antagonist used for the glucocorticoid assay was also RU486."}, "progesterone receptor": {"target": "T2, progesterone receptor (Homo sapiens, UniProt P06401)", "T2 construct": "host or cells: HEK 293T", "T2 sequence (P06401 679-913 limits assumed)": "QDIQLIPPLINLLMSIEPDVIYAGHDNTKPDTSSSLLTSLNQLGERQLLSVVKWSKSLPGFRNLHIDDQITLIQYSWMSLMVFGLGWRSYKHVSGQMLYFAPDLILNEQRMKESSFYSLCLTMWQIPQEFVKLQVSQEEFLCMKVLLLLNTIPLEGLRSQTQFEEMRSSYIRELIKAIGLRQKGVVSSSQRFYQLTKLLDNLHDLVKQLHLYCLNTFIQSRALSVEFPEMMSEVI", "assay": "Progesterone Antagonist Screen (SelectScreen cell-based nuclear receptor profiling, GeneBLAzer beta-lactamase reporter)", "conditions": "relative to RU486, which is 100%; progesterone receptor-LBD-UAS-bla HEK 293T cells; activated by control agonist R5020 at EC80", "description": "as §1\nThe generalized protocol used for the Progesterone Antagonist Screen, activated by control Agonist R5020 is as follows:\nas §2"}},
  "data": [
    {"compound": "CC(=O)c1ccc([C@H]2C[C@@]3(C)[C@@H](CC[C@@]3(O)C(F)(F)C(F)(F)F)[C@@H]3CCC4=CC(=O)CCC4=C32)cc1", "note": "[ZK 230211, reference compound]", "values": [
      {"measurement": "Glucocorticoid Antagonist (%)", "setting": "glucocorticoid receptor", "value": 6, "unit": "%"},
      {"measurement": "Progesterone Antagonist (%)", "setting": "progesterone receptor", "value": 81, "unit": "%"}
    ]},
    {"compound": "C[C@]12C[C@H](c3ccc(-n4ccnc4)cc3)C3=C4CCC(=O)C=C4CC[C@H]3[C@@H]1CC[C@@]2(O)C#CC(F)(F)F", "note": "[Ib, 11β-(4′-(1-imidazolyl)phenyl)-17β-hydroxy-17-(3,3,3-trifluoro-1-propynyl)-estra-4,9-diene-3-one]", "values": [
      {"measurement": "Glucocorticoid Antagonist (%)", "setting": "glucocorticoid receptor", "value": 83, "unit": "%"},
      {"measurement": "Progesterone Antagonist (%)", "setting": "progesterone receptor", "value": 34, "unit": "%"}
    ]},
    {"compound": "C=CC(F)(F)[C@]1(O)CC[C@H]2[C@@H]3CCC4=CC(=O)CCC4=C3[C@@H](c3ccc(-n4ccnc4)cc3)C[C@@]21C", "note": "[Id, 11β-(4′-(1-imidazolyl)phenyl)-17β-hydroxy-17-(1,1-difluoroprop-2-enyl)-estra-4,9-diene-3-one]", "values": [
      {"measurement": "Glucocorticoid Antagonist (%)", "setting": "glucocorticoid receptor", "value": 13, "unit": "%"},
      {"measurement": "Progesterone Antagonist (%)", "setting": "progesterone receptor", "value": 90, "unit": "%"}
    ]},
    {"compound": "C=C1CCOC12CCC1C3CCC4=CC(=O)CCC4=C3[C@@H](c3ccc(-n4ccnc4)cc3)C[C@@]12C", "note": "(stereo partly drawn) [Ie, 11β-(4′-[1-imidazolyl]phenyl)-17,23-epoxy-19,24-dinor-17α-chola-4,9,20-triene-3-one]", "values": [
      {"measurement": "Glucocorticoid Antagonist (%)", "setting": "glucocorticoid receptor", "value": 5, "unit": "%"},
      {"measurement": "Progesterone Antagonist (%)", "setting": "progesterone receptor", "value": 163, "unit": "%"}
    ]},
    {"compound": "C[C@]12C[C@H](c3ccc(-n4ccnc4)cc3)C3=C4CCC(=O)C=C4CC[C@H]3[C@@H]1CC[C@@]2(O)C(F)(F)C(F)(F)F", "note": "[Ia, 11β-(4′-(1-imidazolyl)phenyl)-17β-hydroxy-17-(1,1,2,2,2-pentafluoroethyl)-estra-4,9-diene-3-one]", "values": [
      {"measurement": "Glucocorticoid Antagonist (%)", "setting": "glucocorticoid receptor", "value": 9, "unit": "%"},
      {"measurement": "Progesterone Antagonist (%)", "setting": "progesterone receptor", "value": 267, "unit": "%"}
    ]},
    {"compound": "C[C@]12C[C@H](c3ccc(-n4ccnc4)cc3)C3=C4CCC(=O)C=C4CCC3C1CC[C@@]2(O)/C=C/C(F)(F)F", "note": "(stereo partly drawn) [Ic, 11β-(4′-(1-imidazolyl)phenyl)-17β-hydroxy-17-(3,3,3-trifluoroprop-1(E)-enyl)-estra-4,9-diene-3-one]", "values": [
      {"measurement": "Glucocorticoid Antagonist (%)", "setting": "glucocorticoid receptor", "value": 31, "unit": "%"},
      {"measurement": "Progesterone Antagonist (%)", "setting": "progesterone receptor", "value": 54, "unit": "%"}
    ]}
  ]
}
